Laboratory results taken from BindingDB's records for patent US11147816 (Genuv, 2021).

What was measured:
[1] = molecular target: Dual specificity mitogen-activated protein kinase kinase 1 (Homo sapiens, UniProt Q02750); assay: MEK 1/2 inhibition
[2] = molecular target: Dual specificity mitogen-activated protein kinase kinase 2 (Homo sapiens, UniProt P36507); assay: MEK 1/2 inhibition
Sequence of Dual specificity mitogen-activated protein kinase kinase 2 (P36507 whole entry): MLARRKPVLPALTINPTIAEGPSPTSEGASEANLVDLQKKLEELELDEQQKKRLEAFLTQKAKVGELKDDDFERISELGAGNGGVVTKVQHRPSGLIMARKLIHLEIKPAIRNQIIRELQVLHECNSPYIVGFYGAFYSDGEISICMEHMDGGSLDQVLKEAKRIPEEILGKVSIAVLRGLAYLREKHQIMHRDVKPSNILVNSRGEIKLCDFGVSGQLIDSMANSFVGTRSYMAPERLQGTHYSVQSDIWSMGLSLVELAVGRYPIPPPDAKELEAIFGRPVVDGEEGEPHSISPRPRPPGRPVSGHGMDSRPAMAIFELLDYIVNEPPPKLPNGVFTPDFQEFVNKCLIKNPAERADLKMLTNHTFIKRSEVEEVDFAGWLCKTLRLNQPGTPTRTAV

Sequence of Dual specificity mitogen-activated protein kinase kinase 1 (Q02750 whole entry): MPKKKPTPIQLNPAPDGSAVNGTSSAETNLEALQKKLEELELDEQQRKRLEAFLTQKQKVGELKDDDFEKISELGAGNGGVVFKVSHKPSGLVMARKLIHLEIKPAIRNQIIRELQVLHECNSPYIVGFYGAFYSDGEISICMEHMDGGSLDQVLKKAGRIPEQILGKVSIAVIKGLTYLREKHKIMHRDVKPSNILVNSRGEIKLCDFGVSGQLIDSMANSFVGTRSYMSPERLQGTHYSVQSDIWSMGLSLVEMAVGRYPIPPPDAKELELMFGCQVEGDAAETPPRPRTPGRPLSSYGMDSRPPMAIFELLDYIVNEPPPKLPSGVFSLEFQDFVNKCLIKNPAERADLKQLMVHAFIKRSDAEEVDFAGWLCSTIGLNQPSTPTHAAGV

Row | IC50 [1] [nM] | SMILES | IC50 [2] [nM]
1 | 1.4 | O=C(NOC[C@@H](O)CO)c1cc(Br)c(F)c(F)c1Nc1ccc(I)cc1F [US11147816, PD318088] | 
2 |  | COc1cc(F)c(F)c(Nc2ccc(I)cc2F)c1NS(=O)(=O)C1(C[C@H](O)CO)CC1 [US11147816, Refametinib (RDEA119, Bay] | 47
